Data published in patent EP1285920A1, “C10 Ester sustituted taxanes as antitumor agents” (Florida State University Research Foundation, Inc., priority 2001, dated 2003).
Where two headings read alike, the source gives them in different places.

Tests used:
blood cell populations = test: Effect of oral treatment on blood cell populations and body weight in the MX-1 study (Example 22); format: in vivo, nu/nu mice; conditions: mg/kg: 0499 80, 0550 73, 0611 113, 0748 200
Method: (§1) Antitumor compounds were administered orally in a study to investigate whether such a formulation is efficacious against the MX-1 human breast carcinoma xenograft. Antitumor compound 0499 was formulated as Solution 1 in Example 6. Antitumor compound 0550 was formulated as Solution 2 in Example 6. Antitumor compound 0611 was formulated as Solution 3 in Example 6. Antitumor compound 0748 was formulated as Solution 4 in Example 6. Other antitumor compounds were formulated similarly. The compounds were prepared in a vehicle of 90% saline, 5% Cremophor, and 5% ethanol.
(§2) Female nu/nu mice (11-12 weeks of age; implanted subcutaneously with 1 mm^3 MX-1 human breast carcinoma fragments in the flank) were sorted into one control group (n=10) and four treatment (n=6) groups (group mean tumor size of 47-49 mg). The study was terminated on Day 63.
In addition to survival and tumor regression responses, the effect of treatment on blood cell populations was assessed. The major effect of these antitumor compounds on blood cell populations was a marked reduction in the neutrophil cell number. As well, monocyte depletion correlated fairly well with neutrophil reduction for each antitumor compound. […] There was a correlation between antitumor activity and reduced neutrophil count. In general, toxicity (as determined by neutrophil depletion) and weight loss correlated with efficacy. […] Importantly, the toxicities observed with the very efficacious antitumor compounds were manageable and reversible; neutrophil count and body weight rebounded from their low points in just a few days. Table 20 summarizes the weight reduction, neutrophil and monocyte measurements on Day 4, with tumor weight reduction calculated at Day 18: Table 20

[1] = system: MX-1 human breast carcinoma; format: in vivo
Method: as §1, §2

MX-1 carcinoma = conditions: for Mean Score: 6 mice/group; for Complete Response: tumor not palpable at end of study; for Partial Response: tumor smaller than on Day 1
Method in brief: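 Mice dosed with a single i.v. bolus (qd x 1) at each compound's MTD, formulated in 5% ethanol, 5% Cremophor, 90% isotonic saline. Study ended Day 60; complete response = tumor not palpable at study end.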

HCT116 carcinoma = system: HCT116 carcinoma
Method in brief: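 Mice bearing HCT116 tumours received a single i.v. maximum tolerated dose per compound, formulated in 5% ethanol, 5% Cremophor, 90% isotonic saline. Study ended on Day 60; complete response meant no palpable tumour at study end.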

[2] = system: NCI-H1299 (H1299) carcinoma; test: In vivo evaluation against NCI-H1299 human lung carcinoma xenograft (i.v., Example 11); conditions: for Mean Score: tumor score 1 to 10 per mouse, group mean
Method: Antitumor compounds were formulated for an i.v. dosing regime prepared in the following vehicle: 10% ethanol, 10% Cremophor and 80% isotonic saline.
Vehicle control animals were dosed twice intravenously with half the total volume being given separated by one hour. The study was terminated on Day 60.
A complete response is obtained if the tumor is not palpable at the end of the study.
A tumor scoring system was designed to provide a more quantitative ranking of efficacy (therapeutic potential) among the antitumor agents evaluated against the different human solid tumor xenografts. Each mouse in a study was given a score of from 1 to 10 at the end of the study. The scores can be summarized as follows:
The individual score for each mouse was averaged into a mean score for each treatment group. […]
The treatment protocol for the H1299 test was identical to the SK-MES test protocol. […]

[3] = system: Panc-1 pancreatic carcinoma; conditions: for Mean Score: tumor scoring system
Method: The dosing volume was 0.3 ml per 20 g mouse.
Female NCr-nude mice were implanted subcutaneously with 1 mm^3 Panc-1 pancreatic carcinoma fragments in the flank and sorted into treatment groups of six mice each. […] Dosing was initiated on Day 1. The antitumor compounds were given i.v. at an estimated maximum tolerated dose (MTD) appropriate for each agent on a qd x 1 schedule (single administration of compound). […] The vehicle was administered i.v. to control mice in Group 1 on the qd x 1 schedule.
The mean days of survival is the number of days after which a neoplasm reached a size of 1.5 g and the animal was euthanized. A complete response is obtained if the tumor shrinks to a size smaller than its size on Day 1 of the study.

[4] = Day 4, vs vehicle, single oral bolus
[5] = number of mice, single oral bolus Day 1, mg/kg: 0499 80, 0550 73, 0611 113, 0748 200, 6 mice/group, Day 63
[6] = i.v. qd x 1 at MTD, Day 60, doses as in E17
[7] = number of 6 mice, tumor did not reach 2.0 g by end of study, i.v. qd x 1 at MTD, Day 60, doses as in E17
[8] = number of 6 mice, i.v. qd x 1 at MTD, Day 60, doses as in E17
[9] = number of 6 mice, i.v. qd x 1 at MTD, Day 60, mg/kg: Taxol 36 (split dose), 0503 72.6, 0536 49, 0663 159, 0670 123, 0687 159, 0706 108, 0908 159, 0947 76.9, 0951 72.6, 0983 67.4, 0999 49, 1003 49, 1011 108
[10] = i.v. qd x 1 at MTD, 5 mice/group, Day 60, doses as in E3
[11] = number of 5 mice, tumor did not reach 2.0 g by end of study, i.v. qd x 1 at MTD, Day 60, doses as in E3
[12] = number of 5 mice, tumor not palpable at end of study, i.v. qd x 1 at MTD, Day 60, doses as in E3
[13] = number of 5 mice, tumor smaller than on Day 1, i.v. qd x 1 at MTD, Day 60, doses as in E3
[14] = number of 5 mice, i.v. qd x 1 at MTD, Day 60, doses as in E3
[15] = number of 5 mice, i.v. qd x 1 at MTD, Day 60, mg/kg: Taxol 36 (split doses), 0503 72.6, 0536 49, 0663 159, 0670 123, 0687 159, 0706 108, 0908 159, 0947 76.9, 0951 72.6, 0983 72.6, 0999 49, 1003 49, 1011 108
[16] = i.v. split dose qd x 1, six mice per group
[17] = number of mice, Taxol 15 mg/kg i.p. qd x 5, 6 mice, Day 63
[18] = number of mice, i.v. qd x 1, mg/kg: Taxol 24, 0854 46.6, 1011 107.6, 6 mice/group, Day 63
[19] = MX-1, i.v. qd x 1, six mice per group
[20] = HCT116, Taxol i.p. 18 mg/kg qd x 5 (Group 3)
[21] = number of 5 mice, Taxol 18 mg/kg i.p. qd x 5

CCC(=O)O[C@H]1C(=O)[C@@]2(C)[C@H]([C@H](OC(=O)c3ccccc3)[C@]3(O)C[C@H](OC(=O)[C@H](O)[C@H](C=C(C)C)NC(=O)OC(C)(C)C)C(C)=C1C3(C)C)[C@]1(OC(C)=O)CO[C@@H]1C[C@@H]2O [Compound 0499]
% Reduction (Monocytes) (blood cell populations; [4]): 24.0%
% Reduction (Neutrophils) (blood cell populations; [4]): 91.6%
Monocytes (K/µL) (blood cell populations; Day 4, single oral bolus Day 1): 0.073 K/µL
Neutrophils (K/µL) (blood cell populations; Day 4, single oral bolus Day 1): 0.077 K/µL
Maximum Weight Loss (Day) (blood cell populations; body weight, day of maximum in parentheses in the cell, single oral bolus Day 1): -11.4% (7)
complete tumor regressions ([1]; MX-1, single oral bolus Day 1, six mice per group (0611: five evaluable), ended Day 63): two
Mean Day of Survival (n) ([1]; days until tumor reached 1.5 g, single oral bolus Day 1, mg/kg: 0499 80, 0550 73, 0611 113, 0748 200, 6 mice/group, terminated Day 63): 56.6 ± 2.1 (3)
Toxic Deaths ([1]; number of mice, single oral bolus Day 1, mg/kg: 0499 80, 0550 73, 0611 113, 0748 200, 6 mice/group): 0
Complete Response [1, 5]: 2
Partial Response [1, 5]: 0
Stable Disease [1, 5]: 1
% Reduction (Weight) ([1]; po, 432 h): 100.0%

CCC(=O)O[C@H]1C(=O)[C@@]2(C)[C@H]([C@H](OC(=O)c3ccccc3)[C@]3(O)C[C@H](OC(=O)[C@H](O)[C@@H](NC(=O)OC(C)(C)C)c4ccccn4)C(C)=C1C3(C)C)[C@]1(OC(C)=O)CO[C@@H]1C[C@@H]2O [Compound 0503]
treated animals with durable complete responses and partial responses (MX-1 carcinoma; MX-1, single i.v. MTD): 100%
Mean Score (MX-1 carcinoma; [6]): 9.7 ± 0.2
Stable Disease (MX-1 carcinoma; [7]): 0
Complete Response (MX-1 carcinoma; [8]): 4
Partial Response (MX-1 carcinoma; [8]): 2
Survivors (MX-1 carcinoma; [8]): 6
Toxic Deaths (MX-1 carcinoma; [9]): 0
Mean Score (HCT116 carcinoma; [10]): 9.2 ± 0.2
Stable Disease (HCT116 carcinoma; [11]): 0
Complete Response (HCT116 carcinoma; [12]): 1
Partial Response (HCT116 carcinoma; [13]): 4
Survivors (HCT116 carcinoma; [14]): 5
Toxic Deaths (HCT116 carcinoma; [15]): 0
Partial Response ([2]; i.v. split dose qd x 1): 0
Stable Disease ([2]; i.v. split dose qd x 1): 3
antitumor activity ([2]; i.v. split dose qd x 1): significant efficacy
Survivors [2, 16]: 5
Mean Score [2]: 5.5 ± 1.6

CC(=O)O[C@H]1C(=O)[C@@]2(C)[C@H]([C@H](OC(=O)c3ccccc3)[C@]3(O)C[C@H](OC(=O)[C@H](O)[C@@H](NC(=O)c4ccccc4)c4ccccc4)C(C)=C1C3(C)C)[C@]1(OC(C)=O)CO[C@@H]1C[C@@H]2O [Taxol, paclitaxel, reference compound]
MDS ([3]; Panc-1 (Example 18), Taxol 24 mg/kg i.v. qd x 1, four mice, tumor 1.5 g, ended Day 63): 34.7 days
Toxic Deaths ([3]; Panc-1 (Example 18), Taxol i.p. 15 mg/kg qd x 5 (Group 3), six animals): four
Stable Disease ([3]; Panc-1 (Example 18), i.v. qd x 1, Taxol 24 mg/kg split, six mice per group): one
toxic deaths / toxic lethalities ([3]; Panc-1 (Example 18), i.v. qd x 1, six mice per group): One
MDS (n) ([3]; mean days of survival until neoplasm reached 1.5 g, i.v. qd x 1, mg/kg: Taxol 24, 0854 46.6, 1011 107.6, 6 mice/group, terminated Day 63): 34.7 ± 3.4 days
Toxic Deaths ([3]; number of mice, Taxol 15 mg/kg i.p. qd x 5, 6 mice): 4
Complete Response [3, 17]: 0
Partial Response [3, 17]: 1
Stable Disease [3, 17]: 0
Survivors [3, 17]: 1
Toxic Deaths ([3]; number of mice, i.v. qd x 1, mg/kg: Taxol 24, 0854 46.6, 1011 107.6, 6 mice/group): 1
Complete Response [3, 18]: 0
Partial Response [3, 18]: 0
Stable Disease [3, 18]: 1
Survivors [3, 18]: 1
Mean Score ([3]; Taxol 15 mg/kg i.p. qd x 5, 6 mice): 1.2 ± 1.2
Mean Score ([3]; i.v. qd x 1, mg/kg: Taxol 24, 0854 46.6, 1011 107.6, 6 mice/group): 2.2 ± 0.8
MDS (MX-1 carcinoma; MX-1, Taxol 36 mg/kg i.v. qd x 1, one animal, calculated, tumor 2.0 g): 27.8 days
antitumor activity / tumor response (MX-1 carcinoma; MX-1, i.v. qd x 1, Day 60): moderate anti-tumor activity
Stable Disease (MX-1 carcinoma; [19]): One
Toxic Deaths (MX-1 carcinoma; [19]): four
Mean Score (MX-1 carcinoma; [6]): 1.2 ± 0.8
tolerability (MX-1 carcinoma; mouse, in vivo, iv): not well tolerated
Stable Disease (MX-1 carcinoma; [7]): 1
Complete Response (MX-1 carcinoma; [8]): 0
Partial Response (MX-1 carcinoma; [8]): 0
Survivors (MX-1 carcinoma; [8]): 1
Toxic Deaths (MX-1 carcinoma; [9]): 0
increase in survival compared to control Group 1 (HCT116 carcinoma; HCT116, Taxol 36 mg/kg i.v. qd x 1): 24%
Partial Response (HCT116 carcinoma; [20]): one
survival extension compared to Group 1 control mice (HCT116 carcinoma; [20]): 84%
MDS (HCT116 carcinoma; HCT116, i.v. qd x 1 (compounds single MTD; Taxol 36 mg/kg split), days until tumor 2.0 g, ended Day 60): 27.5 days
Stable Disease (HCT116 carcinoma; HCT116, i.v. qd x 1, five mice per group): one
Mean Score (HCT116 carcinoma; Taxol 18 mg/kg i.p. qd x 5, 5 mice): 3.6 ± 1.4
Mean Score (HCT116 carcinoma; [10]): 2.2 ± 0.5
MDS (n) (HCT116 carcinoma; mean days of survival until tumor reached 2.0 g, i.v. qd x 1 at MTD, 5 mice/group, study ended Day 60, mg/kg: Taxol 36 (split doses), 0503 72.6, 0536 49, 0663 159, 0670 123, 0687 159, 0706 108, 0908 159, 0947 76.9, 0951 72.6, 0983 72.6, 0999 49, 1003 49, 1011 108): 27.5 ± 1.7 (4) days
tolerability (HCT116 carcinoma; mouse, in vivo, iv): well-tolerated
Stable Disease (HCT116 carcinoma; [11]): 1
Complete Response (HCT116 carcinoma; [12]): 0
Partial Response (HCT116 carcinoma; [13]): 0
Complete Response (HCT116 carcinoma; [21]): 0
Partial Response (HCT116 carcinoma; [21]): 1
Stable Disease (HCT116 carcinoma; [21]): 0
Survivors (HCT116 carcinoma; [21]): 1
Toxic Deaths (HCT116 carcinoma; [21]): 0
Survivors (HCT116 carcinoma; [14]): 1
Toxic Deaths (HCT116 carcinoma; [15]): 0
survival extension compared to vehicle-treated animals ([2]; Taxol 36 mg/kg i.v., five animals): 10%
MDS (n) ([2]; i.v. MTD in two half doses one hour apart, qd x 1, Taxol 36 mg/kg, 0503 72.1 mg/kg, ended Day 60): 27.0 ± 4.6 (5) days
Complete Response ([2]; i.v. split dose qd x 1): 0
Stable Disease ([2]; i.v. split dose qd x 1): 0
antitumor activity ([2]; i.v. split dose qd x 1): not active
Survivors [2, 16]: 1
Toxic Deaths [2, 16]: 0
Mean Score [2]: 2.7 ± 1.3
